One assay relates to HEK293 cells. The class given is cell-based, human. The following applies: for effect on IFN induction by HIV-1-GFP: cGAS-reconstituted producer cells treated during virus preparation, 20 μM GW4869, 60 μM Ac-DEVD-CHO; for IFN response in target cells under pharmacological inhibition: cells treated 1 hour prior to infection, 5 μM, MOI=1.
In assay [1] the test system is IFNβ promoter reporter (p125-F-Luc). The class given is cell-based, human. Conditions: HEK293 cells transfected with 2 μg 2′-3′-cGAMP, 24 hours.
For assay [2], the system named is Ova-specific CD8+ T cells. The assay is described as follows: CD8+ T cell responses after subcutaneous immunization (tetramer, IFN-g ELISPOT). Format: in vivo, mice. Conditions: cGAMP at a far higher dose of cGAMP.

With `O=C(/C=C/c1ccc(/C=C/C(=O)Nc2ccc(C3=NCCN3)cc2)cc1)Nc1ccc(C2=NCCN2)cc1` [GW4869], the “effect on IFN induction by HIV-1-GFP” value in the assay with HEK293 cells is recorded as “did not diminish IFN induction”.
As for `Nc1nc2c(ncn2[C@@H]2O[C@@H]3COP(=O)(O)O[C@H]4[C@@H](O)[C@H](n5cnc6c(N)ncnc65)O[C@@H]4COP(=O)(O)O[C@@H]2[C@@H]3O)c(=O)[nH]1` [cGAMP, 2′-3′-cyclic GMP-AMP], in assay [1], the “IFN induction in response to cGAMP” value is reported as “induce IFN”. Further, the “tumor-specific T cell response” value in assay [2] is listed as “not able to significantly induce”.
Regarding `Cc1ccnc2c1NC(=O)c1cccnc1N2C1CC1` [nevirapine], the “IFN response in target cells under pharmacological inhibition” value with HEK293 cells was “independent of reverse transcription and integration”.
Same read-out and setting: then `Cc1nnc(C(=O)NC(C)(C)c2nc(C(=O)NCc3ccc(F)cc3)c(O)c(=O)n2C)o1` [raltegravir], with “independent of reverse transcription and integration”.
For the molecule Ac-DEVD-CHO, the “effect on IFN induction by HIV-1-GFP” value in the assay with HEK293 cells is “did not diminish IFN induction”.

The values are drawn from patent publication US20190105381A1, “METHOD FOR PREPARING VIRAL PARTICLES WITH CYCLIC DINUCLEOTIDE AND USE OF SAID PARTICLES FOR TREATING CANCER” (priority 2016, published 2019).
